“Also recorded” adds a separate entry of the source.
Assays:
CI-MPR = CI-MPR (Homo sapiens, UniProt P11717); settings: previous studies; read-out: apparent KD; cited from earlier work
[1] = system: GAA-deficient multinucleated myotubes (KO); assay: Cell-associated GAA activity in treated GAA KO myotubes; assay type: cell-based, mouse; settings: 5 μM for 24 hours, compared to untreated cells
Protocol: (§1) Muscle cell culture, treatment, processing, and analysis. The biological effect of the Endo-A (69) and Endo-F3 (70) remodeled rhGAA was investigated in an in vitro model of Pompe disease.^[11, 12] The myoblasts are grown on Matrigel (Corning; 354234)-coated 6-well plates at 33° C. in an atmosphere of 5% CO2 in proliferation medium [20% fetal bovine serum, 10% horse serum, 1% chick embryo extract, recombinant IFN-γ (100 U/mL; Life Technologies), 1× penicillin/streptomycin/L-glutamine in high-glucose (4.5 g/L) DMEM]. When the cells reach 70-80% confluency (3-4 days), the medium is switched to differentiation medium [DMEM containing 2% horse serum, 0.5% chick embryo extract, recombinant human insulin (10 μg/mL, Life Technologies, 12585-014), 1× penicillin/streptomycin/L-glutamine], and the cells are moved to 37° C. in an atmosphere of 5% CO2. Myotubes begin to form within 3-4 days; they can survive for ˜ 8-10 days in culture until they start twitching and detach from the surface. […]
Measurement of cell-associated GAA activity. The GAA activity in the cells was measured by using 4-methylumbelliferyl-α-D-glucopyranoside (4-MU-α-glucopyranoside; Sigma-Aldrich #M9766) as the fluorogenic GAA substrate as described.^[13] […] Fluorescence was measured on a multi-label plate reader (TECAN, SPARK 10M) at 360 nm excitation/465 nm emission.

[2] = system: GAA-deficient multinucleated myotubes (KO); assay: Western blotting of treated GAA KO myotube lysates; assay type: cell-based, mouse; settings: 5 μM for 24 hours
Protocol: as §1
Western blotting. […] Protein concentrations of the supernatants were measured using the Bio-Rad Protein Assay (Bio-Rad Laboratories, Inc.), and equal amounts of protein were run on SDS-PAGE gels (Invitrogen, Carlsbad, CA). […]

[3] = system: GAA-deficient multinucleated myotubes (KO); assay: LAMP1 immunofluorescence (lysosomal swelling) in GAA KO myotubes; assay type: cell-based, mouse; settings: 5 μM for 24 hours, confocal images
Protocol: Muscle cell culture, treatment, processing, and analysis. The biological effect of the Endo-A (69) and Endo-F3 (70) remodeled rhGAA was investigated in an in vitro model of Pompe disease.^[11, 12] The myoblasts are grown on Matrigel (Corning; 354234)-coated 6-well plates at 33° C. in an atmosphere of 5% CO2 in proliferation medium [20% fetal bovine serum, 10% horse serum, 1% chick embryo extract, recombinant IFN-γ (100 U/mL; Life Technologies), 1× penicillin/streptomycin/L-glutamine in high-glucose (4.5 g/L) DMEM]. When the cells reach 70-80% confluency (3-4 days), the medium is switched to differentiation medium [DMEM containing 2% horse serum, 0.5% chick embryo extract, recombinant human insulin (10 μg/mL, Life Technologies, 12585-014), 1× penicillin/streptomycin/L-glutamine], and the cells are moved to 37° C. in an atmosphere of 5% CO2. Myotubes begin to form within 3-4 days; they can survive for ˜ 8-10 days in culture until they start twitching and detach from the surface.
The commercial rhGAA, Endo-A- or Endo-F3 remodeled rhGAA were added to the myotubes (on day 8 in differentiation medium) at a concentration of 5 μM for 24 hours; n=5 independent experiments for each condition. Wild type (WT) immortalized myotubes and untreated KO myotubes were used for comparison. The cells were homogenized on ice in deionized H2O, sonicated, and centrifuged at 18,000×g at 4° ° C. for 15 min. […]

Sequence of CI-MPR (P11717 41-2491, species assumed): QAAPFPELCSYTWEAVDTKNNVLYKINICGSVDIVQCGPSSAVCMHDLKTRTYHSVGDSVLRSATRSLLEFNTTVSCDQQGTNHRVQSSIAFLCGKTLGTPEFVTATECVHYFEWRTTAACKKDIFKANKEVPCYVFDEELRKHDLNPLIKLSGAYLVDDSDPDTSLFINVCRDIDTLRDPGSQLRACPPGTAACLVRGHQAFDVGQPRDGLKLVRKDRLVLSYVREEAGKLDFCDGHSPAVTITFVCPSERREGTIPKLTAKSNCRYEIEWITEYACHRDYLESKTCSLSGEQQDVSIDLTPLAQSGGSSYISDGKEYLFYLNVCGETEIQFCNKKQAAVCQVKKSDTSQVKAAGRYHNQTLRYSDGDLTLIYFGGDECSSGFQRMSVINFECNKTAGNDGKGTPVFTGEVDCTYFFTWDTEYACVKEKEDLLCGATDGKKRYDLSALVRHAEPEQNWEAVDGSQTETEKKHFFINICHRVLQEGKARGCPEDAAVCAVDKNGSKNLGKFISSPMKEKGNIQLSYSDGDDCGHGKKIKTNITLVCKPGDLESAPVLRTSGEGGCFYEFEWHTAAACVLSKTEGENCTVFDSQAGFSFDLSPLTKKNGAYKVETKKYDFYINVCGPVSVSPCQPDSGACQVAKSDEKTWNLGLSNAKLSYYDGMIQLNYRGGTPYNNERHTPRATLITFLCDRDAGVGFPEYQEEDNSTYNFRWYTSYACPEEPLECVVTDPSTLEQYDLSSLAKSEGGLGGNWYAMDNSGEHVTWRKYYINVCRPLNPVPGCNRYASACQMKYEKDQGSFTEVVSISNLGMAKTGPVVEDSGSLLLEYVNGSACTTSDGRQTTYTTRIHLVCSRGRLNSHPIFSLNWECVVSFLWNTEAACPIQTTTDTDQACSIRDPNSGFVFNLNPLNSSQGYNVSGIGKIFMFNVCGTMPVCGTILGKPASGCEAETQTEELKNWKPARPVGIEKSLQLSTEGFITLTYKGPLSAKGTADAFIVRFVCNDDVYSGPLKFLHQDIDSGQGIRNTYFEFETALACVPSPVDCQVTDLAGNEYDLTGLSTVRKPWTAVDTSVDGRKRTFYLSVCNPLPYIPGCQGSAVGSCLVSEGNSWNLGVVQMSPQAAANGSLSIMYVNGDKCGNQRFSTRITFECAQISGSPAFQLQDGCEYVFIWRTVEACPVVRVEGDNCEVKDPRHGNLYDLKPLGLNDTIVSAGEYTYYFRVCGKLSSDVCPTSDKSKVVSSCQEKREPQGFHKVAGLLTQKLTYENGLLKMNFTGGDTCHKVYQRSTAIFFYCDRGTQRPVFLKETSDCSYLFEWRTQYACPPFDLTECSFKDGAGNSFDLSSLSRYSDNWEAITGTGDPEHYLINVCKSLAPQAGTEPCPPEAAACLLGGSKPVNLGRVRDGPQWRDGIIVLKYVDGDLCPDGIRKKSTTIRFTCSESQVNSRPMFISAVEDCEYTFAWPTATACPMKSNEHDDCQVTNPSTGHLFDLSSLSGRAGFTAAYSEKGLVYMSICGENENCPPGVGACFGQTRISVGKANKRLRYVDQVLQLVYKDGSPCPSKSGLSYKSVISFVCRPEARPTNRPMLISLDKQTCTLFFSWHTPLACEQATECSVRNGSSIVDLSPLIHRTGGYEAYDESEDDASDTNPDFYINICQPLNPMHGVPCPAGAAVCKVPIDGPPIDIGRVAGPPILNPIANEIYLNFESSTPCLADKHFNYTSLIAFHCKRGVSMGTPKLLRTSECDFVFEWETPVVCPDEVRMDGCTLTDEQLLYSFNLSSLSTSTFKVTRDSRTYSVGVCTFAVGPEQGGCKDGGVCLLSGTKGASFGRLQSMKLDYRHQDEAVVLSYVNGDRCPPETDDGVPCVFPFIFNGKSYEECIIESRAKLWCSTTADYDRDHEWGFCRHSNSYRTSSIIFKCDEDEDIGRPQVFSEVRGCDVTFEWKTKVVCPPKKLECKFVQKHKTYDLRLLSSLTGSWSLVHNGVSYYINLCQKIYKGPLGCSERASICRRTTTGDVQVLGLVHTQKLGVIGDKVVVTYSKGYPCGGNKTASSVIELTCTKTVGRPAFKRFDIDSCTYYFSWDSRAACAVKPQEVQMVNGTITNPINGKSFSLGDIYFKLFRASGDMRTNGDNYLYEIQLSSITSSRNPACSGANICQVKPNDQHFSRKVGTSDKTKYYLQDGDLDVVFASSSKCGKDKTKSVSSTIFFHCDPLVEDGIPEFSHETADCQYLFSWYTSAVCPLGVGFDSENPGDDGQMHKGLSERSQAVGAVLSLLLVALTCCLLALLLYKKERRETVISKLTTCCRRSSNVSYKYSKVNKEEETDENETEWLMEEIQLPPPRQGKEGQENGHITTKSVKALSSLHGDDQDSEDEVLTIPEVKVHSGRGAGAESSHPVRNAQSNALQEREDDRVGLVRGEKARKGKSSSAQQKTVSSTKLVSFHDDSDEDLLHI

Row | Substance | Kd (CI-MPR) | GAA activity in cell lysates (cellular uptake) [1] | levels of endosomal (Rab5) and lysosomal (LAMP1) markers ([2]; Western blot) | processed, mature lysosomal form of rhGAA (76 kDa) in cells ([2]; Western blot with anti-human GAA antibodies) | enlarged LAMP1-positive lysosomes [3]
1 | ATB200: novel rhGAA carrying a higher M6P content that binds the CI-MPR with high affinity (previous studies) | 2 to 4 nM |  |  |  | 
2 | Lumizyme: recombinant human acid α-glucosidase (alglucosidase alfa, Genzyme), therapeutic lysosomal enzyme for Pompe disease |  | only a slight increase (statistically insignificant) | remained the same as in the untreated GAA-deficient cells | barely detectable | Enlarged lysosomes were seen; also recorded: can be detected; also recorded: contain enlarged LAMP1-positive lysosomes
